PubChem BioAssay AID1259407 (Chemical Carcinogenesis Research Information System (CCRIS), 2018)
Activity calls are given as the source filed them. How the calls were made is not given here.

System: CCRIS mutagenicity, Ames/micronucleus/aberration tests
Experiment: CCRIS mutagenicity studies
[1] = Test System: AMES SALMONELLA TYPHIMURIUM, Strain/Indicator: TA1535, Metabolic Activation: NONE, Method: PREINCUBATION

Q: How did the mutagenic call (End Point: IN VITRO CHROMOSOMAL ABERRATIONS, Test System: CHL CELLS, Metabolic Activation: RAT, LIVER, S-9, SODIUM PHENOBARBITAL AND 5,6-BENZOFLAVONE) turn out when `O=C(Br)CBr` was run?
A: inactive; negative; authors report equivocal results for structural changes at 0.02 mg/ml

Q: What about the mutagenic call (Test System: AMES SALMONELLA TYPHIMURIUM, Strain/Indicator: TA98, Metabolic Activation: NONE, Method: PREINCUBATION) of the same molecule?
A: inactive; negative

Q: What about the mutagenic call (Test System: AMES SALMONELLA TYPHIMURIUM, Strain/Indicator: TA98, Metabolic Activation: RAT, LIVER, S-9, PHENOBARBITAL AND BETA-NAPHTHOFLAVONE, Method: PREINCUBATION) of the same molecule?
A: inactive; negative

Q: What about the mutagenic call (Test System: AMES SALMONELLA TYPHIMURIUM, Strain/Indicator: TA100, Metabolic Activation: NONE, Method: PREINCUBATION) of the same molecule?
A: inactive; negative

Q: What about the mutagenic call (Test System: AMES SALMONELLA TYPHIMURIUM, Strain/Indicator: TA100, Metabolic Activation: RAT, LIVER, S-9, PHENOBARBITAL AND BETA-NAPHTHOFLAVONE, Method: PREINCUBATION) of the same molecule?
A: inactive; negative

Q: What about the mutagenic call (Test System: AMES SALMONELLA TYPHIMURIUM, Strain/Indicator: TA102, Metabolic Activation: NONE, Method: PREINCUBATION) of the same molecule?
A: inactive; negative

Q: What about the mutagenic call (Test System: AMES SALMONELLA TYPHIMURIUM, Strain/Indicator: TA102, Metabolic Activation: RAT, LIVER, S-9, PHENOBARBITAL AND BETA-NAPHTHOFLAVONE, Method: PREINCUBATION) of the same molecule?
A: inactive; negative

Q: What about the mutagenic call (Test System: AMES SALMONELLA TYPHIMURIUM, Strain/Indicator: TA104, Metabolic Activation: NONE, Method: PREINCUBATION) of the same molecule?
A: active; positive

Q: And the mutagenic call (Test System: AMES SALMONELLA TYPHIMURIUM, Strain/Indicator: TA104, Metabolic Activation: RAT, LIVER, S-9, PHENOBARBITAL AND BETA-NAPHTHOFLAVONE, Method: PREINCUBATION)?
A: active; positive

Q: What about the mutagenic call [1] of the same molecule?
A: inactive; negative

Q: What about the mutagenic call (Test System: AMES SALMONELLA TYPHIMURIUM, Strain/Indicator: TA1535, Metabolic Activation: RAT, LIVER, S-9, PHENOBARBITAL AND BETA-NAPHTHOFLAVONE, Method: PREINCUBATION) of the same molecule?
A: inactive; negative

Q: And the mutagenic call (Test System: AMES SALMONELLA TYPHIMURIUM, Strain/Indicator: TA1537, Metabolic Activation: NONE, Method: PREINCUBATION)?
A: inactive; negative

Q: And the mutagenic call (Test System: AMES SALMONELLA TYPHIMURIUM, Strain/Indicator: TA1537, Metabolic Activation: RAT, LIVER, S-9, PHENOBARBITAL AND BETA-NAPHTHOFLAVONE, Method: PREINCUBATION)?
A: inactive; negative

Q: And the mutagenic call (Test System: E. COLI, Strain/Indicator: WP2UVRA/PKM101, Metabolic Activation: RAT, LIVER, S-9, PHENOBARBITAL AND BETA-NAPHTHOFLAVONE, Method: PREINCUBATION)?
A: active; positive

Q: And the mutagenic call (Test System: E. COLI, Strain/Indicator: WP2UVRA, Metabolic Activation: NONE, Method: PREINCUBATION)?
A: inactive; negative

Q: What about the mutagenic call (Test System: E. COLI, Strain/Indicator: WP2UVRA, Metabolic Activation: RAT, LIVER, S-9, PHENOBARBITAL AND BETA-NAPHTHOFLAVONE, Method: PREINCUBATION) of the same molecule?
A: inactive; negative

Q: `CC(=O)OCN(C)N=O` was tested. Which mutagenic call (Test System: AMES SALMONELLA TYPHIMURIUM, Strain/Indicator: TA100, Metabolic Activation: HAMSTER, LIVER, CYTOSOL, Method: PREINCUBATION) did it give?
A: active; positive

Q: What about the mutagenic call (Test System: AMES SALMONELLA TYPHIMURIUM, Strain/Indicator: TA100, Metabolic Activation: HAMSTER, LIVER, CYTOSOL, Method: STANDARD PLATE) of the same molecule?
A: active; positive

Q: And the mutagenic call (Test System: AMES SALMONELLA TYPHIMURIUM, Strain/Indicator: TA104, Metabolic Activation: HAMSTER, LIVER, CYTOSOL, Method: PREINCUBATION)?
A: active; positive

Q: What about the mutagenic call (Test System: AMES SALMONELLA TYPHIMURIUM, Strain/Indicator: TA104, Metabolic Activation: HAMSTER, LIVER, CYTOSOL, Method: STANDARD PLATE) of the same molecule?
A: active; positive

Q: What about the mutagenic call [1] of the same molecule?
A: active; positive

Q: And the mutagenic call (Test System: UDS RAT UROTHELIAL CELLS, Strain/Indicator: THY INCORP, Metabolic Activation: NONE)?
A: active; positive

Q: Which mutagenic call (End Point: IN VITRO CHROMOSOMAL ABERRATIONS, Test System: CHO CELLS, Metabolic Activation: NONE) does the source give for `CCBr` here?
A: inactive; negative

Q: And the mutagenic call (End Point: IN VITRO CHROMOSOMAL ABERRATIONS, Test System: CHO CELLS, Metabolic Activation: RAT, LIVER, S-9, AROCLOR 1254)?
A: inactive; negative

Q: What about the mutagenic call (End Point: In vitro Micronucleus, Test System: Chinese Hamster Ovary (CHO-WBL) cells, Metabolic Activation: None) of the same molecule?
A: inactive; negative

Q: What about the mutagenic call (Test System: AMES SALMONELLA TYPHIMURIUM, Strain/Indicator: TA97, Metabolic Activation: NONE, Method: STANDARD PLATE) of the same molecule?
A: active; positive

Q: And the mutagenic call (Test System: AMES SALMONELLA TYPHIMURIUM, Strain/Indicator: TA97, Metabolic Activation: RAT, LIVER, S-9, AROCLOR 1254, Method: STANDARD PLATE)?
A: active; positive

Q: What about the mutagenic call (Test System: AMES SALMONELLA TYPHIMURIUM, Strain/Indicator: TA98, Metabolic Activation: HAMSTER, LIVER, S-9, AROCLOR 1254, Method: DESICCATOR) of the same molecule?
A: inactive; negative

Q: And the mutagenic call (Test System: AMES SALMONELLA TYPHIMURIUM, Strain/Indicator: TA98, Metabolic Activation: NONE, Method: DESICCATOR)?
A: inactive; negative

Q: And the mutagenic call (Test System: AMES SALMONELLA TYPHIMURIUM, Strain/Indicator: TA98, Metabolic Activation: NONE, Method: STANDARD PLATE)?
A: inactive; negative

Q: And the mutagenic call (Test System: AMES SALMONELLA TYPHIMURIUM, Strain/Indicator: TA98, Metabolic Activation: RAT, LIVER, S-9, AROCLOR 1254, Method: DESICCATOR)?
A: inactive; negative

Q: And the mutagenic call (Test System: AMES SALMONELLA TYPHIMURIUM, Strain/Indicator: TA98, Metabolic Activation: RAT, LIVER, S-9, AROCLOR 1254, Method: STANDARD PLATE)?
A: active; positive

Q: And the mutagenic call (Test System: AMES SALMONELLA TYPHIMURIUM, Strain/Indicator: TA100, Metabolic Activation: HAMSTER, LIVER, S-9, AROCLOR 1254, Method: DESICCATOR)?
A: active; positive

Q: What about the mutagenic call (Test System: AMES SALMONELLA TYPHIMURIUM, Strain/Indicator: TA100, Metabolic Activation: NONE, Method: DESICCATOR) of the same molecule?
A: active; positive

Q: And the mutagenic call (Test System: AMES SALMONELLA TYPHIMURIUM, Strain/Indicator: TA100, Metabolic Activation: NONE, Method: STANDARD PLATE)?
A: inactive; negative

Q: And the mutagenic call (Test System: AMES SALMONELLA TYPHIMURIUM, Strain/Indicator: TA100, Metabolic Activation: RAT, LIVER, S-9, AROCLOR 1254, Method: DESICCATOR)?
A: active; positive

Q: And the mutagenic call (Test System: AMES SALMONELLA TYPHIMURIUM, Strain/Indicator: TA100, Metabolic Activation: RAT, LIVER, S-9, AROCLOR 1254, Method: STANDARD PLATE)?
A: active; positive

Q: What about the mutagenic call (Test System: AMES SALMONELLA TYPHIMURIUM, Strain/Indicator: TA104, Metabolic Activation: NONE, Method: STANDARD PLATE) of the same molecule?
A: inactive; negative

Q: What about the mutagenic call (Test System: AMES SALMONELLA TYPHIMURIUM, Strain/Indicator: TA104, Metabolic Activation: RAT, LIVER, S-9, AROCLOR 1254, Method: STANDARD PLATE) of the same molecule?
A: active; positive
